The target in test [1] is GDP-bound KRAS protein (aa 1-169), containing both G12C and C118A amino acid substitutions (Homo sapiens, UniProt P01116, C118A/G12C). Nature of the test: Coupled nucleotide exchange assay (SOS-mediated, AlphaScreen). The class given is biochemical. The conditions noted are these: 5 min compound pre-incubation; for IC50: read-out: Coupled exchange IC50 (5 min).
For test [2], the system named is Phosphorylation of ERK1/2 in MIA PaCa-2 cells. Nature of the test: Phospho-ERK1/2 MSD assay in MIA PaCa-2 cells. The conditions noted are these: read-out: p-ERK IC50 (2 h; MIA PaCa-2), 2 h compound treatment. The class given is cell-based. The essentials: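 Following a 2 or 4 h incubation with titrated compound, cells receive a 10 min pulse of 10 ng/mL EGF. Phospho-ERK1/2 in RIPA lysates is then quantified by MSD immunoassay, and IC50 values come from a four-parameter logistic model.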

Like-named read-outs stand apart in the source and are kept apart here.

Sequence of GDP-bound KRAS protein (aa 1-169), containing both G12C and C118A amino acid substitutions (P01116 1-169 isoform P01116-2 G12C/C118A): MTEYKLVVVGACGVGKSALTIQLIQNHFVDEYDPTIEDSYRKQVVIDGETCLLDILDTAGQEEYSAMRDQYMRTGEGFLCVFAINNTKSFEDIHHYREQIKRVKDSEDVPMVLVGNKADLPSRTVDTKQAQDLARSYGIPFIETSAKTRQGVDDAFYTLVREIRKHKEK

For `C=CC(=O)N1CCN(c2nc(=O)n(-c3c(C)ccnc3C(C)C)c3nc(-c4ccccc4F)c(Cl)cc23)C[C@H]1C` (atropisomer, axis not shown; (M)) [Example 78-1, (M)-6-Chloro-7-(2-fluorophenyl)-1-(4-methyl-2-(2-propanyl)-3-pyridinyl)-4-((3R)-3-methyl-4-(2-propenoyl)-1-piperazinyl)pyrido[2,3-d]pyrimidin-2(1H)-one], the half-maximal inhibitory concentration (IC50) came to 213 nM in test [1] and 49 nM in test [2].
Take `C=CC(=O)N1CCN(c2nc(=O)n(-c3c(C)ccnc3C(C)C)c3nc(-c4c(C)ccc5[nH]ncc45)c(Cl)cc23)[C@@H](C)C1` (atropisomer, axis not shown; (M)) [Example 82-1, (M)-6-Chloro-7-(5-methyl-1H-indazol-4-yl)-1-(4-methyl-2-(2-propanyl)-3-pyridinyl)-4-((2S)-2-methyl-4-(2-propenoyl)-1-piperazinyl)pyrido[2,3-d]pyrimidin-2(1H)-one]: the IC50 was determined as 77 nM in test [1] and 106 nM in test [2].
In the case of `C=CC(=O)N1CCN(c2nc(=O)n(-c3c(C)ccnc3C(C)C)c3nc(-c4c(O)cccc4F)c(Cl)cc23)C[C@H]1C` (atropisomer, axis not shown; (M)) [Example 129, (M)-6-Chloro-7-(2-fluoro-6-hydroxyphenyl)-1-(4-methyl-2-(2-propanyl)-3-pyridinyl)-4-((3R)-3-methyl-4-(2-propenoyl)-1-piperazinyl)pyrido[2,3-d]pyrimidin-2(1H)-one], the “Coupled exchange IC50 (5 min)” value in test [1] is listed as 0.045 | nda μM. Moreover, the IC50 in test [2] (Homo sapiens, MIA PaCa-2, 2 h) is 95 nM.
In the case of `Cc1ccnc(C(C)C)c1-n1c(=O)nc(N2CCN(C(=O)/C=C/CN(C)C)C[C@@H]2C)c2cc(F)c(-c3c(O)cccc3F)nc21` (atropisomer, axis not shown; (M)) [Example 145, (M)-4-((2S)-4-((2E)-4-(Dimethylamino)-2-butenoyl)-2-methyl-piperazinyl)-6-fluoro-7-(2-fluoro-6-hydroxyphenyl)-1-(4-methyl-2-(2-propanyl)-3-pyridinyl)pyrido[2,3-d]pyrimidin-2(1H)-one], the IC50 in test [1] is 952 nM; in test [2], 3920 nM.
On to `C=CC(=O)N1CCN(c2nc(=O)n(-c3c(C)cc[n+]([O-])c3C(C)C)c3nc(-c4ccccc4F)c(Cl)cc23)C(C)C1` (atropisomer, axis not shown; (M)) [Example 151, (M)-6-Chloro-7-(2-fluorophenyl)-1-(4-methyl-1-oxido-2-(2-propanyl)-3-pyridinyl)-4-((2S)-2-methyl-4-(2-propenoyl)-1-piperazinyl)pyrido[2,3-d]pyrimidin-2(1H)-one], for which the “Coupled exchange IC50 (5 min)” value in test [1] is listed as 0.065 | nda μM. Further, in test [2] (Homo sapiens, MIA PaCa-2, 2 h), the IC50 was found to be 237 nM.
As for `C=CC(=O)N1CCN(c2nc(=O)n(-c3c(CN(C)C)ccnc3C(C)C)c3nc(-c4ccccc4F)c(Cl)cc23)[C@@H](C)C1` (atropisomer, axis not shown; (M)) [Example 152, (M)-6-Chloro-1-(4-((dimethylamino)methyl)-2-(2-propanyl)-3-pyridinyl)-7-(2-fluorophenyl)-4-((2S)-2-methyl-4-(2-propenoyl)-1-piperazinyl)pyrido[2,3-d]pyrimidin-2(1H1)-one], the IC50 was 84 nM in test [1] and 21 nM in test [2].
As to `C=CC(=O)N1CCN(c2nc(=O)n(-c3cccnc3C(C)C)c3nc(-c4ccccc4F)c(Cl)cc23)[C@@H](C)C1` (single isomer, unassigned) [Example 54-9-2], the “Coupled exchange IC50 (5 min)” value in test [1] is reported as 0.046 | nda μM. In addition, the IC50 in test [2] was 34 nM.
With `C=CC(=O)N1CCN(c2nc(=O)n(-c3ccccc3C3CCC3)c3nc(-c4c(O)cccc4F)c(Cl)cc23)[C@@H](C)C1` (single isomer, unassigned) [Example 54-10-2], the “Coupled exchange IC50 (5 min)” value in test [1] is on record as 0.071 | nda μM. In addition, in test [2] (Homo sapiens, MIA PaCa-2, 2 h), the IC50 was 60 nM.
As for `C=CC(=O)N1CCN(c2nc(=O)n(-c3cccnc3C(C)C)c3nc(-c4c(O)cccc4F)c(Cl)cc23)[C@@H](C)C1` (single isomer, unassigned) [Example 54-11-1], in test [1], the “Coupled exchange IC50 (5 min)” value is listed as 0.049 | nda μM. For the same compound, the half-maximal inhibitory concentration (IC50) in test [2] was found to be 54 nM.
Taken in the same sequence, the figures for `C=CC(=O)N1CCN(c2nc(=O)n(-c3cccnc3C(C)C)c3nc(-c4c(O)cccc4F)c(Cl)cc23)[C@@H](C)C1` (single isomer, unassigned) [Example 54-11-2] were 0.343 | nda μM and 174 nM.
In the same order, the values of `C=CC(=O)N1CCN(c2nc(=O)n(-c3ccccc3C3CCC3)c3nc(-c4ccccc4F)c(Cl)cc23)[C@@H](C)C1` (single isomer, unassigned) [Example 54-12-1] are 0.13 | nda μM and 78 nM.
For `C=CC(=O)N1CCN(c2nc(=O)n(-c3ccccc3C3CCC3)c3nc(-c4ccccc4F)c(Cl)cc23)[C@@H](C)C1` (single isomer, unassigned) [Example 54-12-2], the “Coupled exchange IC50 (5 min)” value in test [1] is listed as 0.949 | nda μM. In addition, in test [2], the IC50 was 689 nM.
Taken in the same sequence, the figures for `C=CC(=O)N1CCN(c2nc(=O)n(-c3c(C(C)C)ccnc3C)c3nc(-c4ccccc4F)c(Cl)cc23)[C@@H](C)C1` (single isomer, unassigned) [Example 54-18-1] were 0.044 | nda μM and 36 nM.
Regarding `C=CC(=O)N1CCN(c2nc(=O)n(-c3c(C(C)C)ccnc3C)c3nc(-c4ccccc4F)c(Cl)cc23)[C@@H](C)C1` (single isomer, unassigned) [Example 54-18-2], the “Coupled exchange IC50 (5 min)” value in test [1] was 0.729 | nda μM. In test [2], the IC50 was determined as 643 nM.
Turning to `C=CC(=O)N1CCN(c2nc(=O)n(-c3ccccc3C(C)C)c3nc(-c4cc(OC(F)F)ccc4F)c(Cl)cc23)[C@@H](C)C1` (single isomer, unassigned) [Example 54-51-1], the “Coupled exchange IC50 (5 min)” value in test [1] was 0.108 | nda μM. Also, the IC50 in test [2] (Homo sapiens, MIA PaCa-2, 2 h) was determined as 263 nM.
In the case of `C=CC(=O)N1CCN(c2nc(=O)n(-c3c(OC)cccc3C(C)C)c3nc(-c4c(O)cccc4F)c(Cl)cc23)[C@@H](C)C1` (single isomer, unassigned) [Example 54-73-1], the “Coupled exchange IC50 (5 min)” value in test [1] was 0.025 | nda μM. For the same compound, the IC50 in test [2] was determined as 38 nM.
On to `C=CC(=O)N1CCN(c2nc(=O)n(-c3c(OC)cccc3C(C)C)c3nc(-c4c(O)cccc4F)c(Cl)cc23)[C@@H](C)C1` (single isomer, unassigned) [Example 54-73-2], for which the “Coupled exchange IC50 (5 min)” value in test [1] is 0.368 | nda μM. Besides, the 50% inhibitory concentration (IC50) in test [2] was 927 nM.
As for `C=CC(=O)N1CCN(c2nc(=O)n(-c3ccccc3C(C)C)c3nc(C4=CCCCC4)c(Cl)cc23)[C@@H](C)C1` (single isomer, unassigned) [Example 54-75-1], in test [1], the “Coupled exchange IC50 (5 min)” value is recorded as 0.419 | nda μM. The half-maximal inhibitory concentration (IC50) in test [2] (Homo sapiens, MIA PaCa-2, 2 h) worked out at 853 nM.
For `C=CC(=O)N1CCN(c2nc(=O)n(-c3ccccc3C(C)C)c3nc(-c4ccc(F)cc4O)c(Cl)cc23)[C@@H](C)C1` (single isomer, unassigned) [Example 54-77-2], the “Coupled exchange IC50 (5 min)” value in test [1] is given as 0.136 | nda μM. In addition, the concentration for half-maximal inhibition (IC50) in test [2] (Homo sapiens, MIA PaCa-2, 2 h) stood at 176 nM.
In the same order, the values of `C=CC(=O)N1CCN(c2nc(=O)n(-c3ccccc3C(C)C)c3nc(-c4cc(F)ccc4O)c(Cl)cc23)[C@@H](C)C1` (single isomer, unassigned) [Example 54-78-2] are 0.212 | nda μM and 311 nM.
For `C=CC(=O)N1CCN(c2nc(=O)n(-c3ccccc3C(C)C)c3nc(-c4ccc(F)cc4F)c(Cl)cc23)[C@@H](C)C1` (single isomer, unassigned) [Example 54-85-1], the “Coupled exchange IC50 (5 min)” value in test [1] was 3.4 | nda μM. Besides, in test [2], the IC50 worked out at 1510 nM.
In the case of `C=CC(=O)N1CCN(c2nc(=O)n(-c3ccccc3C(C)C)c3nc(-c4ccc(F)cc4F)c(Cl)cc23)[C@@H](C)C1` (single isomer, unassigned) [Example 54-85-2], in test [1], the “Coupled exchange IC50 (5 min)” value is on record as 0.078 | nda μM. In test [2], the IC50 is 79 nM.
Regarding `C=CC(=O)N1CCN(c2nc(=O)n(-c3ccccc3C(C)C)c3nc(-c4cc(O)ccc4F)c(Cl)cc23)[C@@H](C)C1` (single isomer, unassigned) [Example 54-88-1], in test [1], the “Coupled exchange IC50 (5 min)” value is 0.077 | nda μM. In test [2] (Homo sapiens, MIA PaCa-2, 2 h), the IC50 is 84 nM.
Consider `C=CC(=O)N1CCN(c2nc(=O)n(-c3ccccc3C(C)C)c3nc(-c4cc(O)ccc4Cl)c(Cl)cc23)[C@@H](C)C1` (single isomer, unassigned) [Example 54-90-1], for which the “Coupled exchange IC50 (5 min)” value in test [1] is given as 0.047 | nda μM. Further, the IC50 in test [2] came to 63 nM.
For `C=CC(=O)N1CCN(c2nc(=O)n(-c3ccccc3C(C)C)c3nc(-c4cc(O)ccc4Cl)c(Cl)cc23)[C@@H](C)C1` (single isomer, unassigned) [Example 54-90-2], in test [1], the “Coupled exchange IC50 (5 min)” value is 0.633 | nda μM. Moreover, the IC50 in test [2] was determined as 568 nM.
For `C=CC(=O)N1CCN(c2nc(=O)n(-c3ccccc3C(C)C)c3nc(-c4cc(O)cc(Cl)c4Cl)c(Cl)cc23)[C@@H](C)C1` (single isomer, unassigned) [Example 54-91-1], the “Coupled exchange IC50 (5 min)” value in test [1] is 0.021 | nda μM. The IC50 in test [2] stood at 33 nM.
In the same order, the values of `C=CC(=O)N1CCN(c2nc(=O)n(-c3ccccc3C(C)C)c3nc(-c4cc(O)cc(Cl)c4Cl)c(Cl)cc23)[C@@H](C)C1` (single isomer, unassigned) [Example 54-91-2] are 0.181 | nda μM and 509 nM.
Turning to `C=CC(=O)N1CCN(c2nc(=O)n(-c3ccccc3C3(C)CC3)c3nc(-c4c(O)cccc4F)c(Cl)cc23)[C@@H](C)C1` (single isomer, unassigned) [Example 54-97-1], the “Coupled exchange IC50 (5 min)” value in test [1] is 0.971 | nda μM. Also, the IC50 in test [2] came to 1020 nM.

The record behind these values is patent US11090304B2 (Amgen Inc., priority 2018, dated 2021).
